Consider 5 compounds from patent publication US9173823B2, “Preparation for sun protection” (INSTITUT BIOPHYTIS SAS, priority 2009, dated 2015).

For data set [1] the following is noted: cell-free, xanthine/xanthine oxidase system; cited from earlier work.
Data set [2] deals with human skin explants. Kind of data set: Sunburn cell (SBC) count in UV-irradiated human skin explants. The class given is cell-based. The following applies: for reduction of the number of SBC in the epidermis compared to the untreated and irradiated skin: 7 days of treatment, UV irradiation; for reduction of the number of SBC in the epidermis compared to the untreated and irradiated skin / Number of SBC per cm, Irradiated, Average: P1 330 ng·mL-1, P2 and P3 15.5 ng·mL-1; for Number of SBC per cm, Irradiated, Average: UVB 0.30 J/cm^2 and UVA 9 J/cm^2 on day 7, collection 24 hours after irradiation; for Number of SBC per cm, Unirradiated, Mean: unirradiated explants, day 8, P1 330 ng·mL-1, P2 and P3 15.5 ng·mL-1 in medium from day 0. On the procedure: 3. Experimental Study of the Effect of a Bixin-Enriched Urucum Extract, of Bixin and of Norbixin (FIG. 1). Following treatment and UV-B irradiation of human skin explants, a Masson trichrome staining allows the visualization and counting of SBC. 3.1 Tested Products: • P1: urucum organic extract titrated at 6% bixin (330 ng·mL-1) • P2: pure bixin (15.5 ng·mL-1) • P3: pure norbixin (15.5 ng·mL-1) 27 explants (3 per condition) with a diameter of 10 mm were prepared from an abdominoplasty. The explants were cultured at 37° C. in a humid atmosphere containing 5% CO2. These explants were divided into nine (9) batches as follows: Urucum extract was dissolved in DMSO. The three products were added to the medium on the first day (D0), in order to achieve the desired final concentrations. The final amount of DMSO in the medium still remained below 1%. The explants of the control batch received no treatment. On day 7, the explants were exposed to UVB at a dose of 0.30 J/cm^2 and UVA at a dose of 9 J/cm^2. Non-irradiated batches were placed in the dark during the whole irradiation time. Immediately after irradiation, the explants were put back into culture medium. At day 8, i.e. 24 hours after irradiation, the three explants from each batch were taken and processed in the same way. After 48 hours of fixation in Bouin's fixative, samples were dried and impregnated in paraffin using a Leica 1020 automated dehydration controller. Microscopic observations were made by optical microscopy using a Leica DMLB model, with the ×40 lens. Observation of the morphology was performed on paraffin sections after staining with Goldner's variant of Masson's trichrome. Sunburn cells (SBC) were counted throughout each epidermis. The length of each epidermis was measured using the measurement module of the Leica IM1000 and the number of SBC per cm of skin was then calculated.

For data set [3] the following is noted: after ingestion of an oily annatto solution containing 16 mg bixin, cited from earlier work; for time for which the plasma concentration was observed: norbixin above 25 ng·mL^−1, bixin at 10 ng·mL^−1.
Data set [4] relates to chromosomal damage. The following applies: mice, oral, 200 mg per kilogram of body weight before γ-irradiation (1.5-3.0 Gy); cited from earlier work.
The conditions of data set [5]: orally administered prior to chemotherapy; cited from earlier work.
The conditions of data set [6]: bixin in an extract standardized at 92% bixin; norbixin for an extract standardized at 91% of norbixin; cited from earlier work.
For data set [7] the following is noted: single dose of 120 mg or daily dose of 90 mg over 23 days; cited from earlier work.
Data set [8] relates to plasmid DNA. The following applies: norbixin 10 μM, 10 μM H2O2, Sn^2+ or Fe^2+ ions; cited from earlier work.
The test system of data set [9] is E. coli. The following applies: UV-radiation in the presence of H2O2 or superoxide anion; cited from earlier work.
For data set [10], the system named is SOS system. The following applies: in the presence of norbixin; cited from earlier work.
Data set [11] has as its system Salmonella typhimurium. The following applies: cited from earlier work.

On to `CC1=C(/C=C/C(C)=C/C=C/C(C)=C/C=C/C=C(C)/C=C/C=C(C)/C=C/C2=C(C)C(=O)CCC2(C)C)C(C)(C)CCC1=O` [canthaxanthin], for which the “superoxide scavenging ability, decreasing order” value in [1] is recorded as “canthaxanthin>bixin>lutein>β-carotene”.

Consider `COC(=O)/C=C/C(C)=C\C=C\C(C)=C\C=C\C=C(C)\C=C\C=C(C)\C=C\C(=O)O` [P2, bixin], for which, in data set [2], the “reduction of the number of SBC in the epidermis compared to the untreated and irradiated skin” value amounted to 74.4%; the “Number of SBC per cm, Irradiated, Average” value was found to be 41.9 per cm; the “Number of SBC per cm, Unirradiated, Mean” value worked out at 0.3 per cm. In data set [3], the plasma concentration was 10 ng/mL and the “time for which the plasma concentration was observed” value was “less than 4 hours”. Moreover, the “superoxide scavenging ability, decreasing order” value in data set [1] is reported as “canthaxanthin>bixin>lutein>β-carotene”. Besides, the “chromosomal damage, micronucleus test” value in data set [4] is “reduced the occurrence of chromosomal damage”. Besides, in data set [5], the “effect on side-effects of chemotherapy” value is “reduce the side-effects of chemotherapy”. In addition, in data set [6], the “daily acceptable dose (JECFA)” value is reported as 12 mg/kg.

`CC1=C[C@H](O)CC(C)(C)[C@H]1/C=C/C(C)=C/C=C/C(C)=C/C=C/C=C(C)/C=C/C=C(C)/C=C/C1=C(C)C[C@@H](O)CC1(C)C` [lutein]: the “superoxide scavenging ability, decreasing order” value in [1] is “canthaxanthin>bixin>lutein>β-carotene”.

`CC1=C(/C=C/C(C)=C/C=C/C(C)=C/C=C/C=C(C)/C=C/C=C(C)/C=C/C2=C(C)CCCC2(C)C)C(C)(C)CCC1` [β-carotene]: in data set [1], the “superoxide scavenging ability, decreasing order” value was “canthaxanthin>bixin>lutein>β-carotene”. In [7], the “protective effect against sun” value is reported as “ineffective”.

As for `CC(/C=C/C=C(C)/C=C/C(=O)O)=C\C=C\C=C(C)\C=C\C=C(C)\C=C\C(=O)O` (stereo in doubt) [P3, norbixin], in [2], the “reduction of the number of SBC in the epidermis compared to the untreated and irradiated skin” value was 84.4%; the “Number of SBC per cm, Irradiated, Average” value worked out at 25.5 per cm; the “Number of SBC per cm, Unirradiated, Mean” value came out at 0.3 per cm. Also, in data set [3], the plasma concentration entry is “higher than 25 ng·mL^−1” and the “time for which the plasma concentration was observed” value was “more than 6 hours”. In addition, the “protection of plasmid DNA against breaks” value in data set [8] is given as “protect plasmid DNA”. For the same compound, in [9], the “increase of survival of bacteria (factor)” value is 10. Besides, the “reduction of the UV-C induced SOS system” value in [10] is recorded as 2.3 times. In addition, the “reduction of the mutagenic effect of H2O2” value in data set [11] is 87%. In addition, the “daily acceptable dose (JECFA)” value in data set [6] is reported as 0.6 mg/kg.
